Several values for one entry are separate records, joined by “and”; a condition that tells them apart may be missing. Identical values can stand only once. Like-named read-outs stand apart in the source and are kept apart here.
Tests used:
[1] = molecular target: T1, human protein kinase CK2 holoenzyme (CK2α2β2) (Homo sapiens, UniProt P68400); assay: CE-based CK2 inhibition assay (phosphorylation of substrate peptide […]); type: biochemical; details: for remaining activity at 10 µM: 10 µM compound, compared to activity without compound, read-out: residual enzymatic activity; for IC50: CK2 holoenzyme, 100 µM ATP, 13 concentrations 0.01 nM to 10 µM
T1 construct: made in house
T1 sequence (P68400 whole entry): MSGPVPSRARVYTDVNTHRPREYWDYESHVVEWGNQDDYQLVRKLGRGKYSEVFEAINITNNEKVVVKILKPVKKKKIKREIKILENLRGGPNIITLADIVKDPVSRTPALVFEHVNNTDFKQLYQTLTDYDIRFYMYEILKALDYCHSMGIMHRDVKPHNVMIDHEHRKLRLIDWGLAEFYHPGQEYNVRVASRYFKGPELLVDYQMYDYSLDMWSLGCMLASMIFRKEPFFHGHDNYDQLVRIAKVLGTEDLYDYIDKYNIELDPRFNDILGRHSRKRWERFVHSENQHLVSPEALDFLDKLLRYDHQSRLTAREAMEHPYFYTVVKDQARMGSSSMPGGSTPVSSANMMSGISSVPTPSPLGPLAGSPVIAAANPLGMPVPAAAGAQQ
T1 sequence (P67870 whole entry partner): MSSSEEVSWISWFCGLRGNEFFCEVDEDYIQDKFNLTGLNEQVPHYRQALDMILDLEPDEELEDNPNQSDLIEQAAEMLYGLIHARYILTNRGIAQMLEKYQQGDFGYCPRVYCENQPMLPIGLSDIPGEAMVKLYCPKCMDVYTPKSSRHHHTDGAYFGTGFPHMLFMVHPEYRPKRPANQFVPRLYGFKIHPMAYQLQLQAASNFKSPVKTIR
Method: The phosporylation of an artificial substrate peptide ([…]) by the purified holoenzyme was analyzed in a capillary electrophoresis (CE) assay as described before. This peptide is commonly used for the determination of CK2 activity and phosphorylation was determined in the presence and in the absence of the compounds. For this purpose a stock solution of 10 mM in DMSO was prepared for each compound and diluted in the assay to a final concentration of 10 µM. […] Consequently 13 concentrations of both dibenzofurans, ranging from 0.01 nM to 10 µM were tested on their inhibition of CK2 dependent substrate phosphorylation in the presence of 100 μM ATP. […] This can be used to determine the so-called apparent Ki (Ki app) for different substrate (ATP) concentrations.
Human protein kinase CK2 holoenzyme was pre-incubated for 10 min with 13 different concentrations of each compounds ranging from 0.01 nM to 10 μM before the enzymatic activity was determined. […] The resulting inhibition in % was set into relation to the concentration of the corresponding compound in a logarithmic scale. For the calculation of the sigmoidal curve fitting the date GraphPad Prism (GraphPad, La Jolla, CA, USA) was used, as well as for the compound concentrations corresponding to 50% enzyme inhibition.
Phosphorylation of the substrate peptide […] by human protein kinase CK2 holoenzyme was determined in the CE assay at different ATP-concentrations (6, 30, 60, 150, 300, and 400 μM).
In order to determine the inhibition toward human protein kinase CK2 holoenzyme, the dibenzo[b,d]furan derivatives were subjected to the CE-based CK2 assay, as already described for other novel CK2 inhibitors before. In summary, 78 µL of kinase buffer (50 mM Tris/HCl, pH 7.5, 100 mM NaCl, 10 mM MgCl2 and 1 mM DTT) containing 0.25 µg CK2 holoenzyme were supplemented with 2 µL of the test-compound dissolved in DMSO and incubated at 37 °C for 10 min. After the addition of 120 µL of assay buffer (25 mM Tris/HCl, pH 8.5, 150 mM NaCl, 5 mM MgCl2, 1 mM DTT, 190 µM substrate peptide […] and 100 µM ATP) the CK2 reactions were carried out for 15 min at 37 °C, before they were stopped by ice cooling and the addition of 5 µL of EDTA (10 mM, pH 8.0). The samples were then analyzed for phosphorylation of the CK2 substrate peptide by capillary electrophoresis. […] Controls for 100% and 0% inhibition were realized by samples containing pure DMSO and samples additionally lacking the CK2 holoenzyme. IC50 were calculated from the obtained dose response curves.

[2] = molecular target: T2, surface displayed CK2α’ + CK2β (CK2α’ containing human CK2 holoenzyme) (Homo sapiens, UniProt P19784); assay: whole-cell CK2 selectivity assay, holoenzyme surface displayed on E. coli; type: biochemical; details: for IC50: CK2α’ + CK2β displayed on E. coli, 600 µM ATP, 100 µM substrate peptide; for factor of stronger inhibition of CK2α’ containing holoenzyme in comparison to CK2α containing holoenzyme: whole-cell assay, not statistically significant
T2 construct: surface-display (autodisplay) carrier protein; made in house; host or cells: Escherichia coli BL21 (DE3), enzyme left on the cell surface
T2 sequence (P19784 whole entry): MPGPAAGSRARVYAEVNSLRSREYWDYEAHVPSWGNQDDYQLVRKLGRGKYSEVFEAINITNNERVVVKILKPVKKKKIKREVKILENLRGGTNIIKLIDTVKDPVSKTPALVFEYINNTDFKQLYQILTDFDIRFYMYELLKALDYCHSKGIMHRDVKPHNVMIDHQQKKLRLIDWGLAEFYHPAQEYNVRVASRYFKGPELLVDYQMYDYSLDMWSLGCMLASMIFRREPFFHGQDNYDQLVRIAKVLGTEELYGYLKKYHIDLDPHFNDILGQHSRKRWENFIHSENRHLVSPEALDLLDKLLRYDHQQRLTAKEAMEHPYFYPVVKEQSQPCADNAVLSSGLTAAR
T2 sequence (P67870 whole entry partner): as the sequence (P67870 whole entry partner) above
Description: We recently reported a whole cell CK2 activity assay, which can be used for testing the selectivity of compounds towards CK2α and CK2α’ [47]. It is based on the surface display of the human CK2 subunits, either α or α’ together with β on E. coli, were they are able to form a functional tetrameric holoenzymes, either ααββ or α’α’ββ, depending on which α isoform has been expressed. This technique was used to investigate whether 4a or 5 have preference to one of the two catalytic isoforms of CK2.
For this purpose, their IC50 were determined following the protocol of the recently described whole-cell CK2 selectivity assay. In summary, 78 µL of a bacterial suspension of Escherichia coli BL21 (DE3) either surface displaying CK2α + CK2β or CK2α’ + CK2β in kinase buffer (50 mM Tris/HCl, pH 8.5, 100 mM NaCl, 10 mM MgCl2 and 1 mM DTT) were supplemented with 2 µL of the test compound dissolved in DMSO and incubated at 37 °C and 400 rpm for 10 min. CK2 reactions were started by the addition of 120 µL of assay buffer (25 mM Tris/HCl, pH 7.5, 150 mM NaCl, 5 mM MgCl2, 1 mM DTT, 167 µM substrate peptide […] and 1 mM ATP) leading to a total reaction volume of 200 µL with final concentrations of 100 µM for the substrate peptide and 600 µM for ATP. […] After the samples were incubated for 120 min at 37 °C and 400 rpm, the CK2 presenting bacteria were removed by centrifugation (3850× g, 5 min, 4 °C). The obtained supernatants were transferred to the wells of a 96 well-microplate and finally supplemented with EDTA to a concentration of 12.5 mM to definitely stop the enzymatic reactions. The samples were then subjected to a Beckman Coulter pa800 plus (Krefeld, Germany) CE system and analyzed for phosphorylation of the substrate peptide. Samples containing pure DMSO served as controls for 0% inhibition and samples additionally lacking ATP served as controls for 100% inhibition. […] IC50 values were calculated from the resulting dose-response curves.
CK2α’ + CK2β (right column).
Mean values ± standard errors of
the means (SEM) are shown. […]

PIM1 = PIM1 (Homo sapiens, UniProt P11309); design: method as in PMID 22387500; details: 10 µM inhibitor; cited from earlier work
Chain of PIM1 (P11309 whole entry): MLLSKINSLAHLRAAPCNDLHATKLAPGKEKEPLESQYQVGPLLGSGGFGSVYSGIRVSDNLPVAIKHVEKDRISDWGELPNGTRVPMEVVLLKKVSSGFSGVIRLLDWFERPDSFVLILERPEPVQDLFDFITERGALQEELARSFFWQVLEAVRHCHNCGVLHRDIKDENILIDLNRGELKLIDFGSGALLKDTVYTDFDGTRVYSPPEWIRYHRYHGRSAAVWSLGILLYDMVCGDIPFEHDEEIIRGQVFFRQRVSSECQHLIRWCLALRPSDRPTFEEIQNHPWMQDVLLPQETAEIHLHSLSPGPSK

[3] = molecular target: T1, human protein kinase CK2 holoenzyme (CK2α2β2); design: method as in PMID 22387500; details: cited from earlier work
FLT4/VEGFR3 = FLT4/VEGFR3 (Homo sapiens, UniProt P35916); design: purchased Reaction Biology Corp; method as in PMID 22387500; details: 10 µM inhibitor; cited from earlier work
Chain of FLT4/VEGFR3 (P35916 25-1363): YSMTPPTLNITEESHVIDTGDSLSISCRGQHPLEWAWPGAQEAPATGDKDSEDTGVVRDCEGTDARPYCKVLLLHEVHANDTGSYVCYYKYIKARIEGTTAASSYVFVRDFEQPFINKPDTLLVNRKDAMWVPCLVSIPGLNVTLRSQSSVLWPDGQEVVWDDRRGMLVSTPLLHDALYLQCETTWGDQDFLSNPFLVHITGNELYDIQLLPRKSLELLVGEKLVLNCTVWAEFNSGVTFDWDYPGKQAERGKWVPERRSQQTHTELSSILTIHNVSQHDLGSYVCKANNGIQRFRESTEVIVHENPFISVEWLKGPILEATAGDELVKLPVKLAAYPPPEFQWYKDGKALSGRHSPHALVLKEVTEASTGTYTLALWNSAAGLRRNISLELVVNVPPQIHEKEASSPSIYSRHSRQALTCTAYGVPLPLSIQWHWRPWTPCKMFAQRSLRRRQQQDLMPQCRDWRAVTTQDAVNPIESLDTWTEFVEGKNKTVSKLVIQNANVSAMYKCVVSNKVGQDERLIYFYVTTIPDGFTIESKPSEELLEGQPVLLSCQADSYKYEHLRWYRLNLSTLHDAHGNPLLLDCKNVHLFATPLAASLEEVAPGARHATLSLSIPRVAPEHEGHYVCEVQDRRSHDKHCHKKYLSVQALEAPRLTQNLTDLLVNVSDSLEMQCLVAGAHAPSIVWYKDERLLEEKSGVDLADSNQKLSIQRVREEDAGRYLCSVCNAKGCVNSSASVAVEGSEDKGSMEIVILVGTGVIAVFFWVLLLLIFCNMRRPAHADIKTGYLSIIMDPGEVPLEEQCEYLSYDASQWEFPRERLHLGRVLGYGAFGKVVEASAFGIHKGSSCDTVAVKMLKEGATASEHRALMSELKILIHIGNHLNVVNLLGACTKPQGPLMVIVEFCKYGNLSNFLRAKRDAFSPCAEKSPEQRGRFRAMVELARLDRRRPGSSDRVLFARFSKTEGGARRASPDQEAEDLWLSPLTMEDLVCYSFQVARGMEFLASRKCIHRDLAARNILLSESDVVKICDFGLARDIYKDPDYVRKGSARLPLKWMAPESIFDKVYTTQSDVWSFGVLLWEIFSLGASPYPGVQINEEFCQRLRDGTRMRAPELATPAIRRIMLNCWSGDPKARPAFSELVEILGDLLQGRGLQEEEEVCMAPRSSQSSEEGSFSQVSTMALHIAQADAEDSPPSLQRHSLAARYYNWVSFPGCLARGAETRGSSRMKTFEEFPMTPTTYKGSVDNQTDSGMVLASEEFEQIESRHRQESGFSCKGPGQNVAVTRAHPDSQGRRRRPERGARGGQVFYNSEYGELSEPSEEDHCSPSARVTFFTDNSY

LCK = LCK (Homo sapiens, UniProt P06239); assay: biochemical
Chain of LCK (P06239 whole entry): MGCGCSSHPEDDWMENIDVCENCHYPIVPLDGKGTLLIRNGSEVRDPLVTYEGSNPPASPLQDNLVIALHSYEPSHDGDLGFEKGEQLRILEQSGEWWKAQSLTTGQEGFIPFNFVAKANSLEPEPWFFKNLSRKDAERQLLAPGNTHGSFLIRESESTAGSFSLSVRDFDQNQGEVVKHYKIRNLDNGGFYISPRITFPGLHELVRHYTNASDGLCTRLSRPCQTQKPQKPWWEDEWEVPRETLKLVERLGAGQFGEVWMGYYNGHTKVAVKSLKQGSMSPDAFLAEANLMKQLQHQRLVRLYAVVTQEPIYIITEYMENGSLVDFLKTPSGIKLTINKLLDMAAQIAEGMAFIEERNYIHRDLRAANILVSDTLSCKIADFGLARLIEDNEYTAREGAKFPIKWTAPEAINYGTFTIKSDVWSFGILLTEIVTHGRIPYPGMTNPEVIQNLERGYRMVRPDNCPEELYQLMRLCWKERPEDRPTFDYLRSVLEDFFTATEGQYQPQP
Method: For this purpose 61 kinases from different representative subgroups (and CK2α and CK2α’) were tested. Testing was performed with inhibitor concentrations of 10 µM and an ATP concentration of 10 μM. The residual enzyme activity as obtained was set in relation to a control without inhibitor.

CK2α = details: towards CK2α, radiometric assay; cited from earlier work
[4] = Morrison equation, ATP 6–400 µM, best fit line extrapolated to ATP concentration = 0, read-out: apparent Ki (Ki app)

Compound | remaining activity at 10 µM [1] [%] | IC50 [1] | Ki [1, 4] | Ki ([1]; repeated with double the amount of the enzyme CK2, different ATP concentrations, read-out: Ki app) [nM] | IC50 [2] [nM] | factor of stronger inhibition of CK2α’ containing holoenzyme in comparison to CK2α containing holoenzyme [2] | kinase inhibited more than 70% at 10 µM concentration (PIM1) | Ki ([3]; ATP concentrations 6 µM to 400 µM) [nM] | IC50 ([3]; earlier work of the authors) [nM] | kinase inhibited more than 70% at 10 µM concentration (FLT4/VEGFR3) | inhibition at 10 µM (LCK) [%] | IC50 (CK2α) [nM]
COc1ccc(N/C=C2\C(=O)CCc3c2oc2cc(Cl)c(O)c(Cl)c32)cc1 [4a, 7,9-dichloro-1,2-dihydro-8-hydroxy-4-[(4-methoxyphenylamino)methylene]dibenzo[b,d]furan-3(2H)-one] | < 1 | 7 nM and 5 nM | 0.41 nM and 0.4 nM | ~4 | 43 | 1.5 | – | – | – | – | – | –
Cc1ccc(NC=C2C(=O)CCc3c2oc2c(Cl)c(Cl)c(O)cc32)cc1 [4b, 6,7-dichloro-1,4-dihydro-8-hydroxy-4-[(4-methylphenylamino)methylene]dibenzo[b,d]furan-3(2H)-one] | – | – | – | – | – | – | PIM1 | 15 | 29 | FLT4/VEGFR3 | – | –
COc1ccc(/N=C/c2c(O)ccc3c2oc2cc(Cl)c(O)c(Cl)c23)cc1 [compound 5, (E)-1,3-dichloro-6-[(4-methoxyphenylimino)methyl]dibenzo[b,d]furan-2,7-diol] | < 1 | 5 nM and 7 nM | 0.46 nM and 0.4 nM | – | 73 | 1.5 | – | – | – | – | 68 | 7

— article PMC5874719, “A π-Halogen Bond of Dibenzofuranones with the Gatekeeper Phe113 in Human Protein Kinase CK2 Leads to Potent Tight Binding Inhibitors” (Pharmaceuticals, 2018)
